# Where two headings read alike, the source gives them in different places.
# Test system: Dengue-2 (Strain New Guinea C)
# Test: viral yield assay against Dengue-2 in Vero cells
# Type: cell-based
# Details: Dengue virus, Vero cells
# Description: Compounds that were active in the primary screen were also tested for activity in viral yield assays. […] Vero cells in 12-well plates were infected with dengue-2 virus at a multiplicity of infection (MOI) of 0.1, treated with compound (or DMSO as a control), incubated at 37° C., harvested 48 hours post infection and titered on Vero cells as described above. The EC50 was calculated through ExcelFit. Those compounds with activity below 1 μM are indicated with “A”, those with activity between 1 and 10 μM are indicated with “B”, those with activity between 10 and 25 μM with “C”, and those with activity above 25 μM are indicated with “D”.
# [1] = MOI 0.1, harvested 48 hours post infection, read-out: Activity (anti-dengue 2 viral activity, EC50)
Compound,EC50 [1] [µM],"EC50 (viral yield assay, read-out: EC50 Yield Den-2) [µM]","EC90 (viral yield assay, read-out: EC90 Yield Den-2) [µM]"
"O=C(Cn1cnc2ccccc2c1=O)Nc1ccc(S(=O)(=O)NCC(F)(F)F)cc1 [Compound 30, 2-(4-Oxo-4H-quinazolin-3-yl)-N-[4-(2,2,2-trifluoro-ethylsulfamoyl)-phenyl]-acetamide]",10 to 25,,
"CC1CCCC(C)N1S(=O)(=O)c1ccc(NC(=O)Cn2cnc3ccccc3c2=O)cc1 (stereo not drawn) [Compound 18, N-[4-(2,6-Dimethyl-piperidine-1-sulfonyl)-phenyl]-2-(4-oxo-4H-quinazolin-3-yl)-acetamide]",1 to 10,,
"O=C(Cn1cnc2ccccc2c1=O)Nc1ccc(S(=O)(=O)N2CCCC2)cc1 [Compound 31, 2-(4-Oxo-4H-quinazolin-3-yl)-N-[4-(pyrrolidine-1-sulfonyl)-phenyl]-acetamide]",> 25,,
"CCN(CC)S(=O)(=O)c1ccc(NC(=O)Cn2cnc3cc(-c4ccc(OC)cc4)sc3c2=O)cc1 [Compound 61, N-(4-Diethylsulfamoyl-phenyl)-2-[6-(4-methoxy-phenyl)-4-oxo-4H-thieno[3,2-d]pyrimidin-3-yl]-acetamide]",> 25,,
"O=C(Cn1cnc2ccccc2c1=O)Nc1ccc(S(=O)(=O)N2CCCCCC2)cc1 [Compound 51, N-[4-(Azepane-1-sulfonyl)-phenyl]-2-(4-oxo-4H-quinazolin-3-yl)-acetamide]",> 25,,
"CCN(CC)S(=O)(=O)c1ccc(NC(=O)Cn2c(=O)n(CC)c(=O)c3ccccc32)cc1 [Compound 78, N-(4-Diethylsulfamoyl-phenyl)-2-(3-ethyl-2,4-dioxo-3,4-dihydro-2H-quinazolin-1-yl)-acetamide]",> 25,,
"O=C(Cn1cnc2ccccc2c1=O)Nc1ccc(S(=O)(=O)Nc2ncccn2)cc1 [Compound 39, 2-(4-Oxo-4H-quinazolin-3-yl)-N-[4-(pyrimidin-2-ylsulfamoyl)-phenyl]-acetamide]",> 25,,
"Cc1cccc2c(=O)n(CC(=O)Nc3ccc(S(=O)(=O)N(C)C)cc3)cnc12 [Compound 62, N-(4-Dimethylsulfamoyl-phenyl)-2-(8-methyl-4-oxo-4H-quinazolin-3-yl)-acetamide]",> 25,,
"NS(=O)(=O)c1ccc(NC(=O)Cn2cnc3cc([N+](=O)[O-])ccc3c2=O)cc1 [Compound 110, 2-(7-Nitro-4-oxo-4H-quinazolin-3-yl)-N-(4-sulfamoyl-phenyl)-acetamide]",> 25,,
"Cn1c(=O)c2ccccc2n(CC(=O)NCCc2ccc(S(N)(=O)=O)cc2)c1=O [Compound 102, 2-(3-Methyl-2,4-dioxo-3,4-dihydro-2H-quinazolin-1-yl)-N-[2-(4-sulfamoyl-phenyl)-ethyl]-acetamide]",> 25,,
"CC1CCCC(C)N1S(=O)(=O)c1ccc(NC(=O)Cn2cnc3sccc3c2=O)cc1 (stereo not drawn) [Compound 28, N-[4-(2,6-Dimethyl-piperidine-1-sulfonyl)-phenyl]-2-(4-oxo-4H-thieno[2,3-d]pyrimidin-3-yl)-acetamide]",10 to 25,,
"CCN(CC(=O)NCCc1ccc(S(N)(=O)=O)cc1)Cc1nc2ccccc2c(=O)[nH]1 [Compound 114, 2-[Ethyl-(4-oxo-3,4-dihydro-quinazolin-2-ylmethyl)-arnino]-N-[2-(4-sulfamoyl-phenyl)-ethyl]-acetamide]",> 25,,
"O=C(Cn1cnc2ccccc2c1=O)Nc1ccc(S(=O)(=O)N2CCCCC2)cc1 [Compound 52, 2-(4-Oxo-4H-quinazolin-3-yl)-N-[4-(piperidine-1-sulfonyl)-phenyl]-acetamide]",> 25,,
"O=C(Cn1cnc2ccc([N+](=O)[O-])cc2c1=O)Nc1ccc(S(=O)(=O)N2CCOCC2)cc1 [Compound 135, N-[4-(Morpholine-4-sulfonyl)-phenyl]-2-(6-nitro-4-oxo-4H-quinazolin-3-yl)-acetamide]",> 25,,
"CCN(CC)S(=O)(=O)c1ccc(OC(C)C)c(NC(=O)CCn2nnc3ccccc3c2=O)c1 [Compound 25, N-(5-Diethylsulfamoyl-2-isopropoxy-phenyl)-3-(4-oxo-4H-benzo[d][1,2,3]triazin-3-yl)-propionamide]",10 to 25,,
"Cc1ccc(S(=O)(=O)N(C)C)cc1NC(=O)Cn1cnc2ccc(Cl)cc2c1=O [Compound 129, 2-(6-Chloro-4-oxo-4H-quinazolin-3-yl)-N-(5-dimethylsulfamoyl-2-methyl-phenyl)-acetamide]",> 25,,
"CC(C)N(C)S(=O)(=O)c1ccc(NC(=O)Cn2cnc3ccccc3c2=O)cc1 [Compound 42, N-[4-(Isopropyl-methyl-sulfamoyl)-phenyl]-2-(4-oxo-4H-quinazolin-3-yl)-acetamide]",> 25,,
"CN(C)S(=O)(=O)c1ccc(NC(=O)Cn2cnc3ccccc3c2=O)cc1 [Compound 50, N-(4-Dimethylsulfamoyl-phenyl)-2-(4-oxo-4H-quinazolin-3-yl)-acetamide]",> 25,,
"CCN(CC)S(=O)(=O)c1cc(NC(=O)Cn2cnc3ccccc3c2=O)ccc1C [Compound 105, N-(3-Diethylsulfamoyl-4-methyl-phenyl)-2-(4-oxo-4H-quinazolin-3-yl)-acetamide]",> 25,,

Compound,EC50 [1] [µM],"EC50 (viral yield assay, read-out: EC50 Yield Den-2) [µM]","EC90 (viral yield assay, read-out: EC90 Yield Den-2) [µM]"
"CC(=O)NCCc1ccc(S(=O)(=O)Nc2ccc3ncn(C)c(=O)c3c2)cc1 [Compound 103, N-{2-[4-(3-Methyl-4-oxo-3,4-dihydro-quinazolin-6-ylsulfamoyl)-phenyl]-ethyl}-acetamide]",> 25,,
"CCN(CC)S(=O)(=O)c1ccc2c(c1)CCN2C(=O)Cn1cnc2ccccc2c1=O [Compound 17, 1-[2-(4-Oxo-4H-quinazolin-3-yl)-acetyl]-2,3-dihydro-1H-indole-5-sulfonic acid diethylamide]",1 to 10,5.1,12.1
"CC(c1ccc(S(N)(=O)=O)cc1)N(C)C(=O)CCc1nc2ccccc2c(=O)[nH]1 (stereo not drawn) [Compound 132, N-Methyl-3-(4-oxo-3,4-dihydro-quinazolin-2-yl)-N-[1-(4-sulfamoyl-phenyl)-ethyl]-propionamide]",> 25,,
"CCN(CC)S(=O)(=O)c1ccc2c(c1)CCCN2C(=O)Cn1cnc2c(C)cccc2c1=O [Compound 97, 1-[2-(8-Methyl-4-oxo-4H-quinazolin-3-yl)-acetyl]-1,2,3,4-tetrahydro-quinoline-6-sulfonic acid diethylamide]",> 25,,
"CCN(CC)S(=O)(=O)c1ccc(NC(=O)CNC(=O)c2ccc(C)cc2)cc1 [Compound 72, N-[(4-Diethylsulfamoyl-phenylcarbamoyl)-methyl]-4-methyl-benzamide]",> 25,,
"COc1ccc(NC(=O)Cn2cnc3ccccc3c2=O)cc1S(N)(=O)=O [Compound 136, N-(4-Methoxy-3-sulfamoyl-phenyl)-2-(4-oxo-4H-quinazolin-3-yl)-acetamide]",> 25,,
"CCN(CC)S(=O)(=O)c1ccc(NC(=O)CNC(=O)c2ccc3ccccc3c2)cc1 [Compound 74, Naphthalene-2-carboxylic acid[(4-diethylsulfamoyl-phenylcarbamoyl)-methyl]-amide]",> 25,,
"CON(C)S(=O)(=O)c1ccc(NC(=O)Cn2nnc3ccccc3c2=O)cc1 [Compound 84, N-[4-(Methoxy-methyl-sulfamoyl)-phenyl]-2-(4-oxo-4H-benzo[d][1,2,3]triazin-3-yl)-acetamide]",> 25,,
"CCN(CC)C(=O)c1ccc(NCC(=O)Nc2ccc(S(=O)(=O)N(CC)CC)cc2)cc1 [Compound 76, 4-{[(4-Diethylsulfamoyl-phenylcarbamoyl)-methyl]-amino}-N,N-diethyl-benzamide]",> 25,,
"Cc1cc(C)nc(NS(=O)(=O)c2ccc(NC(=O)Cn3cnc4ccccc4c3=O)cc2)n1 [Compound 33, N-[4-(4,6-Dimethyl-pyrimidin-2-ylsulfamoyl)-phenyl]-2-(4-oxo-4H-quinazolin-3-yl)-acetamide]",> 25,,
"O=C(Cn1cnc2ccc(Cl)cc2c1=O)Nc1ccc(S(=O)(=O)N2CCCCCC2)cc1 [Compound 138, N-[4-(Azepane-1-sulfonyl)-phenyl]-2-(6-chloro-4-oxo-4H-quinazolin-3-yl)-acetamide]",> 25,,
"CCN(CC)S(=O)(=O)c1ccc(NC(=O)Cn2cnc3scc(-c4ccccc4)c3c2=O)cc1 [Compound 59, N-(4-Diethylsulfamoyl-phenyl)-2-(4-oxo-5-phenyl-4H-thieno[2,3-d]pyrimidin-3-yl)-acetamide]",> 25,,
"CCN(CC)S(=O)(=O)c1ccc(NC(=O)Cn2cnc3sc(-c4ccccc4)cc3c2=O)cc1 [Compound 56, N-(4-Diethylsulfamoyl-phenyl)-2-(4-oxo-6-phenyl-4H-thieno[2,3-d]pyrimidin-3-yl)-acetamide]",> 25,,
"CCN(CC(=O)Nc1ccc(S(=O)(=O)N(CC)CC)cc1)Cc1nc2ccccc2c(=O)[nH]1 [Compound 29, N-(4-Diethylsulfamoyl-phenyl)-2-[ethyl-(4-oxo-3,4-dihydro-quinazolin-2-ylmethyl)-amino]-acetamide]",10 to 25,,
"Cc1nn(CC(=O)Nc2ccc(S(N)(=O)=O)cc2)c(=O)c2ccccc12 [Compound 100, 2-(4-Methyl-1-oxo-1H-phthalazin-2-yl)-N-(4-sulfamoyl-phenyl)-acetamide]",> 25,,
"CCN(CC)S(=O)(=O)c1ccc(O)c(NC(=O)Cn2nnc3ccccc3c2=O)c1 [Compound 94, N-(5-Diethylsulfamoyl-2-hydroxy-phenyl)-2-(4-oxo-4H-benzo[d][1,2,3]triazin-3-yl)-acetamide]",> 25,,
"CCN(CC)S(=O)(=O)c1ccc(CNC(=O)Cn2cnc3ccccc3c2=O)cc1 [Compound 69, N-(4-Diethylsulfamoyl-benzyl)-2-(4-oxo-4H-quinazolin-3-yl)-acetamide]",> 25,,
"CCN(CC)S(=O)(=O)c1ccc(N(C)C)c(NC(=O)Cn2cnc3ccccc3c2=O)c1 [Compound 88, N-(5-Diethylsulfamoyl-2-dimethylamino-phenyl)-2-(4-oxo-4H-quinazolin-3-yl)-acetamide]",> 25,,

# — US9353051B2, “Antiviral drugs for treatment or prevention of dengue infection” (Siga Technologies Inc., priority 2007, dated 2016)
